Test results taken from ChEMBL document CHEMBL1909294, “Translating clinical findings into knowledge in drug safety evaluation--drug induced liver injury prediction system (DILIps)” (PLoS Comput Biol, 2011).
*1 amine or outer side, *2 acyl side, *3 side chain or, on linkers, in order; H or OH if unused. Where a SMILES comes first, the peptide text is derived from it. Bridges are numbered along the chain shown (N, C = ends). Roman numbers before positions name the chains, in order. [ ]: non-standard residue; d: D form. Actinocin(9to1) = Cc1c2oc3c(C)ccc(C(=O)[*:1])c3nc-2c(C(=O)[*:2])c(N)c1=O; NMeV = CN[C@H](C(=O)O)C(C)C; Sar = CNCC(=O)O

Assays:
Hepatotoxicity [1] = system: Hepatotoxicity;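 for HepSE cholecystitis: Cholecystitis-related hepatic side effect score drawn from the DILIps (drug-induced liver injury prediction) training data set; call rule not given here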;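 for HepSE cholelithiasis: hepatic side effect score for cholelithiasis, drawn from the DILIps training data for predicting drug-induced liver injury; call rule not given here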;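 for HepSE elevated liver function tests: hepatic side effect score for raised liver function tests, as recorded in the DILIps training set used for predicting drug-induced liver injury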;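 for HepSE hepatomegaly: hepatic side effect score for hepatomegaly, taken from the training set of the DILIps drug-induced liver injury prediction system; call rule not given here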;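 for HepSE jaundice: Jaundice-related hepatic side-effect score drawn from the training data of the DILIps (drug-induced liver injury prediction system); call rule not given here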;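 for HepSE liver function tests abnormal: hepatic side effect score taken from the DILIps (drug-induced liver injury prediction system) training data, here covering abnormal liver function test findings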
Hepatotoxicity [2] = system: Hepatotoxicity; remark: listed apart in the source;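 for HepSE cholecystitis: Cholecystitis-related hepatic side effect score drawn from the DILIps (drug-induced liver injury prediction) training data set; call rule not given here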;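 for HepSE cholelithiasis: hepatic side effect score for cholelithiasis, drawn from the DILIps training data for predicting drug-induced liver injury; call rule not given here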;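 for HepSE elevated liver function tests: hepatic side effect score for raised liver function tests, as recorded in the DILIps training set used for predicting drug-induced liver injury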;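 for HepSE hepatomegaly: hepatic side effect score for hepatomegaly, taken from the training set of the DILIps drug-induced liver injury prediction system; call rule not given here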;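 for HepSE jaundice: Jaundice-related hepatic side-effect score drawn from the training data of the DILIps (drug-induced liver injury prediction system); call rule not given here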;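 for HepSE liver function tests abnormal: hepatic side effect score taken from the DILIps (drug-induced liver injury prediction system) training data, here covering abnormal liver function test findings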
Hepatotoxicity [3] = system: Hepatotoxicity; remark: listed apart in the source;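 for HepSE cholecystitis: Cholecystitis-related hepatic side effect score drawn from the DILIps (drug-induced liver injury prediction) training data set; call rule not given here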;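 for HepSE cholelithiasis: hepatic side effect score for cholelithiasis, drawn from the DILIps training data for predicting drug-induced liver injury; call rule not given here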;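 for HepSE elevated liver function tests: hepatic side effect score for raised liver function tests, as recorded in the DILIps training set used for predicting drug-induced liver injury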;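 for HepSE hepatomegaly: hepatic side effect score for hepatomegaly, taken from the training set of the DILIps drug-induced liver injury prediction system; call rule not given here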;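 for HepSE liver function tests abnormal: hepatic side effect score taken from the DILIps (drug-induced liver injury prediction system) training data, here covering abnormal liver function test findings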
Hepatotoxicity [4] = system: Hepatotoxicity; remark: listed apart in the source;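 for HepSE cholecystitis: Cholecystitis-related hepatic side effect score drawn from the DILIps (drug-induced liver injury prediction) training data set; call rule not given here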;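 for HepSE cholelithiasis: hepatic side effect score for cholelithiasis, drawn from the DILIps training data for predicting drug-induced liver injury; call rule not given here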;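 for HepSE elevated liver function tests: hepatic side effect score for raised liver function tests, as recorded in the DILIps training set used for predicting drug-induced liver injury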;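 for HepSE hepatomegaly: hepatic side effect score for hepatomegaly, taken from the training set of the DILIps drug-induced liver injury prediction system; call rule not given here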;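 for HepSE liver function tests abnormal: hepatic side effect score taken from the DILIps (drug-induced liver injury prediction system) training data, here covering abnormal liver function test findings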
Hepatotoxicity [5] = system: Hepatotoxicity; remark: listed apart in the source
Hepatotoxicity [6] = system: Hepatotoxicity; remark: listed apart in the source
Hepatotoxicity [7] = system: Hepatotoxicity; remark: listed apart in the source
Hepatotoxicity [8] = system: Hepatotoxicity; remark: listed apart in the source
Hepatotoxicity [9] = system: Hepatotoxicity; remark: listed apart in the source
Hepatotoxicity [10] = system: Hepatotoxicity; remark: listed apart in the source
Hepatotoxicity [11] = system: Hepatotoxicity; remark: listed apart in the source
Hepatotoxicity [12] = system: Hepatotoxicity; remark: listed apart in the source
Hepatotoxicity [13] = system: Hepatotoxicity; remark: listed apart in the source
Hepatotoxicity [14] = system: Hepatotoxicity; remark: listed apart in the source

| Molecule | HepSE_hepatomegaly (Hepatotoxicity [1]) | HepSE_elevated liver function tests (Hepatotoxicity [2]) | HepSE_liver function tests abnormal (Hepatotoxicity [3]) | HepSE_cholelithiasis (Hepatotoxicity [4]) | HepSE_cholecystitis (Hepatotoxicity [5]) | HepSE_jaundice (Hepatotoxicity [6]) | HepSE_bilirubinemia (Hepatotoxicity [7]) | HepSE_liver fatty (Hepatotoxicity [8]) | HepSE_liver disease (Hepatotoxicity [9]) | HepSE_cirrhosis (Hepatotoxicity [10]) | HepSE_Combined Scores (Hepatotoxicity [11]) | HepSE_hepatitis (Hepatotoxicity [12]) | HepSE_hepatic necrosis (Hepatotoxicity [13]) | HepSE_hepatic failure (Hepatotoxicity [14]) |
| --- | --- | --- | --- | --- | --- | --- | --- | --- | --- | --- | --- | --- | --- | --- |
| COc1ccc(C(=O)Nc2ccccc2CCC2CCCCN2C)cc1 (configuration not stated) [ENCAINIDE] | 0 | 0 | 0 | 0 | 0 | 1 | 0 | 0 | 0 | 0 | 2 | 1 | 0 | 0 |
| CC[C@@H](CO)NC(=O)[C@@H]1C=C2c3cccc4[nH]cc(c34)C[C@H]2N(C)C1 [METHYLERGONOVINE] | 0 | 0 | 0 | 0 | 0 | 0 | 0 | 0 | 0 | 0 | 0 | 0 | 0 | 0 |
| OC(CCN1CCCCC1)(c1ccccc1)C1CC2C=CC1C2 (configuration not stated) [BIPERIDEN] | 0 | 0 | 0 | 0 | 0 | 0 | 0 | 0 | 0 | 0 | 0 | 0 | 0 | 0 |
| NS(=O)(=O)c1cc2c(cc1C(F)(F)F)NCNS2(=O)=O [HYDROFLUMETHIAZIDE] | 0 | 0 | 0 | 0 | 0 | 1 | 0 | 0 | 0 | 0 | 1 | 0 | 0 | 0 |
| CCCCc1nc(N)[se]c1CCC | 0 | 0 | 0 | 0 | 0 | 0 | 0 | 0 | 0 | 0 | 0 | 0 | 0 | 0 |
| Cc1c2oc3c(C)ccc(C(=O)N[C@@H]4C(=O)N[C@H](C(C)C)C(=O)N5CCC[C@H]5C(=O)N(C)CC(=O)N(C)[C@@H](C(C)C)C(=O)O[C@@H]4C)c3nc-2c(C(=O)N[C@@H]2C(=O)N[C@H](C(C)C)C(=O)N3CCC[C@H]3C(=O)N(C)CC(=O)N(C)[C@@H](C(C)C)C(=O)O[C@@H]2C)c(N)c1=O [DACTINOMYCIN] (I: T[dV]P[Sar][NMeV] / II: T[dV]P[Sar][NMeV]; ester I:1-I:C, II:1-II:C; linker I:N-II:N via Actinocin(9to1)) | 0 | 0 | 0 | 0 | 0 | 0 | 0 | 0 | 0 | 0 | 1 | 0 | 0 | 1 |
| CN(Cc1cnc2nc(N)nc(N)c2n1)c1ccc(C(=O)N[C@@H](CCC(=O)O)C(=O)O)cc1 [METHOTREXATE] | 0 | 1 | 0 | 0 | 0 | 0 | 1 | 0 | 0 | 1 | 5 | 1 | 0 | 1 |
| GLATIRAMER ACETATE | 1 | 0 | 0 | 1 | 1 | 0 | 0 | 0 | 0 | 1 | 5 | 1 | 0 | 0 |
| CN(C)CCCN1c2ccccc2CCc2ccccc21 [IMIPRAMINE] | 0 | 0 | 0 | 0 | 0 | 1 | 0 | 0 | 0 | 0 | 1 | 0 | 0 | 0 |
| HYDROXOCOBALAMIN | 0 | 0 | 0 | 0 | 0 | 0 | 0 | 0 | 0 | 0 | 0 | 0 | 0 | 0 |
| CC(=O)/N=c1/sc(S(N)(=O)=O)nn1C [METHAZOLAMIDE] | 0 | 0 | 0 | 0 | 0 | 0 | 0 | 0 | 0 | 0 | 1 | 0 | 1 | 0 |
| Cc1[nH]cnc1CN1CCc2c(c3ccccc3n2C)C1=O [ALOSETRON] | 0 | 0 | 0 | 0 | 1 | 1 | 0 | 0 | 0 | 0 | 3 | 1 | 0 | 0 |
| Clc1ccccc1C(c1ccccc1)(c1ccccc1)n1ccnc1 [CLOTRIMAZOLE] | 0 | 0 | 1 | 0 | 0 | 0 | 0 | 0 | 0 | 0 | 1 | 0 | 0 | 0 |
